Experiments:
Plasminogen [1] = biological target: T1, Plasminogen (Homo sapiens, UniProt P00747); test: Inhibitory activity of compound was evaluated against plasmin
[2] = Inhibitory activity of compound was evaluated against plasma kallikrein-S-2302; format: cell-free
[3] = Inhibitory activity of compound was evaluated against thrombin-S-2238; not detectable
Plasminogen [4] = biological target: T1, Plasminogen; test: Inhibitory activity of compound was evaluated against plasmin; not detectable
[5] = Inhibitory activity of compound was evaluated against plasmin-fibrin (Fn); not detectable
[6] = Inhibitory activity of compound was evaluated against plasma kallikrein-S-2302; not detectable; format: cell-free
[7] = Inhibitory activity of compound was evaluated against urokinase-S-2444; not detectable
[8] = Inhibitory activity of compound was evaluated against thrombin-fibrinogen (Fg); not detectable
[9] = Inhibitory activity of compound was evaluated against plasmin-fibrin (Fn)
[10] = Inhibitory activity of compound was evaluated against urokinase-S-2444
[11] = Inhibitory activity of compound was evaluated against thrombin-S-2238
[12] = Inhibitory activity of compound was evaluated against thrombin-fibrinogen (Fg)

T1 sequence (P00747 97-580 limits assumed): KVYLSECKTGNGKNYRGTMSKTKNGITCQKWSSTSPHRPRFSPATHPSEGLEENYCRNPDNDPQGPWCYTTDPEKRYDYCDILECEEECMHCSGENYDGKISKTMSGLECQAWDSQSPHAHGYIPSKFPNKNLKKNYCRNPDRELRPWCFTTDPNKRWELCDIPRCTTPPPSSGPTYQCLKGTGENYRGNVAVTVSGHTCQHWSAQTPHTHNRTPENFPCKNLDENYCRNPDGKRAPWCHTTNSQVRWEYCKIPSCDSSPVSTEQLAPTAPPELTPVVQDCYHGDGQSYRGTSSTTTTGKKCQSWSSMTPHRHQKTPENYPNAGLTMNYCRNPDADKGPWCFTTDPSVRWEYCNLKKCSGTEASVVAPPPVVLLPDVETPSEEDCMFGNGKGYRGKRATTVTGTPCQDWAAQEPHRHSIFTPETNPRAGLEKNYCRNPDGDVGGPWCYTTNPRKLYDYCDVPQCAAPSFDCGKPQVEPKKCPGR
T1 sequence (P00747 581-810 limits assumed): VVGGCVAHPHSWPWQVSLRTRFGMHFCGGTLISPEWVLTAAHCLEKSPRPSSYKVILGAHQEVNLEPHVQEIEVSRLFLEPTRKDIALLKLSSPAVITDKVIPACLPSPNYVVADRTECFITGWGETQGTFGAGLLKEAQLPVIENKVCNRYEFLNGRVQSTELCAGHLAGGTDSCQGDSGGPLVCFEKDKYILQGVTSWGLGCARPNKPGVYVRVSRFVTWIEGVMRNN

SMILES | IC50 (Plasminogen [1]) [µM] | IC50 [2] [µM] | IC50 [9] [µM] | IC50 ([10]; read-out: IC50) [µM] | IC50 [11] [µM] | IC50 [12] [µM] | further results
CC(=O)c1ccc(NC(=O)C(Cc2ccc(OC(=O)OCc3ccccc3Br)cc2)NC(=O)[C@H]2CC[C@H](CN)CC2)cc1 (some centres not stated) | 0.23 | 0.37 |  |  |  |  | 
Cc1nc(Cc2ccccc2)c(O)nc1Cc1ccccc1 |  |  |  |  |  |  | IC50 [3]: Not detectable; IC50 (Plasminogen [4]): Not detectable; IC50 [5]: Not detectable; IC50 [6]: Not detectable; IC50 [7]: Not detectable; IC50 [8]: Not detectable
NC[C@H]1CC[C@H](C(=O)NC(Cc2ccccc2)C(=O)Nc2ccc(CC(=O)O)cc2)CC1 (some centres not stated) | 620 | 1.3 | 350 | 350 | > 1000 | > 1000 | 
CCCCCCCCNC(=O)C(Cc1ccc(OCc2ccncc2)cc1)NC(=O)[C@H]1CC[C@H](CN)CC1 (some centres not stated) | 0.53 | 30 | 0.36 | 5.3 | > 400 | > 100 | 
CC(C)CCNC(=O)C(Cc1ccc(OC(=O)OCc2ccccc2Br)cc1)NC(=O)[C@H]1CC[C@H](CN)CC1 (some centres not stated) | 0.46 | 2.1 | 0.056 | 260 | 70 | > 100 | 
Cc1nc(Cc2ccccc2)c(O)nc1CCCCNC(=O)c1cccs1 |  |  |  |  |  |  | IC50 [3]: Not detectable; IC50 (Plasminogen [4]): Not detectable; IC50 [5]: Not detectable; IC50 [6]: Not detectable; IC50 [7]: Not detectable; IC50 [8]: Not detectable
Cc1nc(CCC(=O)OCc2ccccc2)c(O)nc1CCCCNC(=O)OCc1ccccc1 |  |  |  |  |  |  | IC50 [3]: Not detectable; IC50 (Plasminogen [4]): Not detectable; IC50 [5]: Not detectable; IC50 [10]: Not detectable; IC50 [6]: Not detectable; IC50 [8]: Not detectable
CCCCCCCCOC(=O)[C@H]1CC[C@H](CNC(=O)C(Cc2ccc(OC(=O)OCc3ccccc3Br)cc2)NC(=O)[C@H]2CC[C@H](CN)CC2)CC1 (some centres not stated) | 2.5 | 45 | 0.56 | > 50 | > 50 | > 10 | 
CCCCCCCCNC(=O)C(Cc1ccc(OC(=O)OCc2ccccc2Br)cc1)NC(=O)[C@H]1CC[C@H](CN)CC1 (some centres not stated) | 0.8 | 16 | 0.23 | > 50 | > 50 | > 25 | 
Cc1nc(C)c(CCCNC(=O)C(Cc2ccc(OC(=O)OCc3ccccc3Br)cc2)NC(=O)[C@H]2CC[C@H](CN)CC2)nc1O (some centres not stated) |  |  | 0.39 | 54 |  |  | IC50 ([3]; read-out: IC50): 490 µM; IC50 (Plasminogen [4]; read-out: IC50): 0.74 µM; IC50 ([6]; read-out: IC50): 36 µM; IC50 ([8]; read-out: IC50): > 250 µM
NC[C@H]1CC[C@H](C(=O)NC(Cc2ccc(Oc3ncccn3)cc2)C(=O)Nc2cccc(C(=O)O)c2)CC1 (some centres not stated) | 32 | 0.71 | 29 | 650 | > 1000 | > 1000 | 

Reference: ChEMBL document CHEMBL1132747, “Development of plasmin and plasma kallikrein selective inhibitors and their effect on M1 (melanoma) and HT29 cell lines” (Bioorg Med Chem Lett, 2000)
